Patent US7897774B2, “Cyclic compound having quinolylalkylthio group” (Santen Pharmaceutical Co., Ltd., priority 2005, dated 2011)

Test system: VEGF-induced HUVEC proliferation
Experiment: VEGF-induced HUVEC proliferation reaction evaluation system (cell proliferation inhibitory action test, WST-8)
Type: cell-based, human
Details: HUVEC 2×10^3 cells per well in 100 μL; 5 μL of 20 μg/mL test compound solution per well; 5 μL of 400 ng/mL VEGF solution; WST-8 three days after VEGF, absorbance at 450 nm; control 1.0% DMSO
Experimental: In order to find the usefulness of the compound of the present invention, a test for inhibitory effects of the compound of the present invention on cell proliferation was carried out using a VEGF-induced HUVEC proliferation reaction evaluation system (HUVEC: human umbilical vein endothelial cells), which is a method of evaluating antiangiogenic effects of drugs, and the antiangiogenic effects of the compound were evaluated.
As one of the widely used methods of evaluating antiangiogenic effects of drugs, a cell proliferation inhibitory action test using a VEGF-induced HUVEC proliferation reaction evaluation system has been reported in Cancer Res., 59, 99-106 (1999). According to the method described in the above-mentioned document, a cell proliferation inhibitory action test of the compounds of the present invention was carried out, and the cell proliferation inhibition rate was calculated. Then, the antiangiogenic effect of each of the compounds of the present invention was evaluated using the obtained rate as an index.
Each test compound was dissolved in dimethyl sulfoxide (hereinafter abbreviated as DMSO), and the obtained solution was diluted with a commercially available phosphate buffer solution (hereinafter abbreviated as PBS), whereby a 20 μg/mL test compound solution was prepared.
HUVEC was suspended in F12K medium containing 0.5% fetal bovine serum (hereinafter abbreviated as FBS), whereby a 2×10^4 cells/mL HUVEC suspension was prepared.
VEGF was dissolved in PBS containing 0.1% bovine serum albumin, and the obtained solution was diluted with F12K medium containing 0.5% FBS, whereby a 400 ng/mL VEGF solution was prepared.
1) The HUVEC suspension was inoculated in an amount of 100 μL into each well of a 96-well plate coated with type I collagen (2×10^3 cells per well).
2) One day after the inoculation, the test compound solution was added in an amount of 5 μL per well.
3) One hour after the addition of the test compound solution, the VEGF solution was added in an amount of 5 μL per well.
4) Three days after the addition of the VEGF solution, WST-8 assay reagent (Dojin Chemical Co., Ltd.) was added in an amount of 10 μL per well.
5) After 3 hours, the above-mentioned plate was attached to an absorptiometer (Multilabel Counter ARVO), and an absorbance at 450 nm of suspension in each well (hereinafter referred to as a test compound suspension) was measured.
6) A test was carried out in the same manner as in the above 1) to 5) except that 1.0% DMSO was used instead of the test compound solution. The result was used as a control.
Incubation was carried out under conditions of 37° C., 5% carbon dioxide and […] in an incubator throughout the above-mentioned test steps.
The cell proliferation inhibition rate (%), which was used as an index of an antiangiogenic effect, was calculated using the following calculation equation.
(Calculation Equation) Cell proliferation inhibition rate (%)=100−{(Absorbance of test compound suspension−A)/(absorbance of control−A)}×100 A: Absorbance of only cell suspension (cells+medium) (Test Results and Discussion)

SMILES | Cell proliferation inhibition rate (%)
Cc1cc(C)cc(NC(=O)c2cccnc2SCc2cc[n+]([O-])c3ccccc23)c1 [Compound 1-35, N-(3,5-Dimethylphenyl)-2-(1-oxoquinolin-4-ylmethylthio)pyridine-3-carboxamide] | 100%

Same assay, conditions: Homo sapiens, 72 h; HUVEC 2×10^3 cells per well in 100 μL; 5 μL of 20 μg/mL test compound solution per well; 5 μL of 400 ng/mL VEGF solution; WST-8 three days after VEGF, absorbance at 450 nm; control 1.0% DMSO; read-out: Cell proliferation inhibition rate (%)

SMILES | inhibition at 20 µg/mL (stock)
O=C(Nc1ccc(Cl)cc1)c1cccnc1SCc1ccnc2ccccc12 [Compound 1-1, N-(4-Chlorophenyl)-2-(quinolin-4-ylmethylthio)pyridine-3-carboxamide] | 100%
Cc1cc(C)cc(NC(=O)c2cccnc2SCc2ccnc3ccccc23)c1 [Compound 1-3, N-(3,5-Dimethylphenyl)-2-(quinolin-4-ylmethylthio)pyridine-3-carboxamide] | 100%
COc1ccc(CCNC(=O)c2ccccc2SCc2ccnc3ccccc23)cc1 [Compound 1-26, N-[2-(4-Methoxyphenyl)ethyl]-2-(quinolin-4-ylmethylthio)benzamide] | 97%
COc1cc2nccc(CSc3ncccc3C(=O)Nc3cc(C)cc(C)c3)c2cc1OC [Compound 1-30, 2-(6,7-Dimethoxyquinolin-4-ylmethylthio)-N-(3,5-dimethylphenyl)pyridine-3-carboxamide] | 70%
COc1cc2nccc(CSc3ncccc3C(=O)Nc3cccc(Cl)c3)c2cc1OC [Compound 1-31, N-(3-Chlorophenyl)-2-(6,7-dimethoxyquinolin-4-ylmethylthio)pyridine-3-carboxamide] | 88%
Cc1cccc(NC(=O)c2cccnc2SCc2ccnc3cc(Cl)c(Cl)cc23)c1 [Compound 1-33, 2-(6,7-Dichloroquinolin-4-ylmethylthio)-N-(3-methylphenyl)pyridine-3-carboxamide] | 100%
Cc1cc(C)cc(NC(=O)c2cccnc2SCc2ccc3ncccc3c2)c1 [Compound 1-36, N-(3,5-Dimethylphenyl)-2-(quinolin-6-ylmethylthio)pyridine-3-carboxamide] | 100%
O=C(Nc1cccc(Cl)c1)c1cccnc1SCc1ccc2ncccc2c1 [Compound 1-38, N-(3-Chlorophenyl)-2-(quinolin-6-ylmethylthio)pyridine-3-carboxamide] | 100%
Cc1cc(C)cc(NC(=O)c2cccnc2SCc2cnc3ccccc3c2)c1 [Compound 1-39, N-(3,5-Dimethylphenyl)-2-(quinolin-3-ylmethylthio)pyridine-3-carboxamide] | 100%
O=C(Nc1ccc(OC(F)(F)F)cc1)c1cccnc1SCc1ccnc2ccccc12 [Compound 2-1, 2-(Quinolin-4-ylmethylthio)-N-(4-trifluoromethoxyphenyl)pyridine-3-carboxamide] | 100%
Cc1cc(C)cc(NC(=O)c2ccccc2SCc2ccnc3ccccc23)c1 [Compound 2-2, N-(3,5-Dimethylphenyl)-2-(quinolin-4-ylmethylthio)benzamide] | 100%
O=C(Nc1ccc(Cl)cc1)c1ccccc1SCc1ccnc2ccccc12 [Compound 2-3, N-(4-Chlorophenyl)-2-(quinolin-4-ylmethylthio)benzamide] | 100%
Cc1cc(C)cc(NC(=O)c2sccc2SCc2ccnc3ccccc23)c1 [Compound 2-8, N-(3,5-Dimethylphenyl)-3-(quinolin-4-ylmethylthio)thiophene-2-carboxamide] | 100%
